Ends that are not written are not given here.
Tests used:
E. coli ribosome = test: Binding of AeaTMOF-FITC to purified E. coli ribosomes; parameters: species or system Escherichia coli
Procedure: The purification of E. coli ribosomes is a modification of earlier published methods. Briefly, E. coli (BL21) cells were grown in LB medium for 24 h to OD600 of 1.1, and the cells were centrifuged at 5000 rpm at 6 °C for 5 min. The supernatant was discarded and the pellet was washed with 40 mM HEPES-KOH pH7.4, 100 mM NaCl, and 2 mM Mg(OAc)2 buffer. The suspension was centrifuged at 6000 rpm for 5 min, the supernatant discarded, and the pellet was frozen at −80 °C and stored overnight. The frozen pellet was taken up in 10 mL of sonication buffer of 20 mM HEPES-KOH pH 7.5, 100 NH4OAc, 6 mM βME, 0.5 mM Na-EDTA, and 0.5% Tween 20 containing 100 units of RNase inhibitor, and the solution was sonicated at 40% power for 10 s, 50% power for 10 s, and 60% power for 20 s. During the sonication, the tube was immersed in an ice bath. The lysed cell solution (25 mL) in sonication buffer was centrifuged at 30,000 g in a Beckman ultracentrifuge using a 70Ti centrifuge rotor for 30 min at 4 °C. After centrifugation, the supernatant was collected, and the pellet discarded. […] The amount of the protein in the ribosome preparation and the ribosomal RNA was determined (2.28 mg/mL protein and 3.932 mg/mL ribosomal RNA). […]
Purified E. coli ribosomes (1 μL, 9.4 μg) in tight association buffer (20 mM HEPES-KOH pH 7.6, 6 mM Mg(OAc)2, 30 mM NH4OAc, and 6 mM βME) were incubated in Eppendorf tubes containing 100 μL of tight association buffer and 5 μL of AeaTMOF-FITC (0–0.2 μM) (Specific activity 8333 Fluorescence Units/pmol) for 60 min at 30 °C with gentle shaking. […] The washing by centrifugation with 5% TCA was repeated 3 times, and after the final centrifugation, the pellets were dissolved in 100 μL of PBS containing 0.4N NaOH, and the fluorescence of the dissolved pellets was read in a GloMax multidetector system using a blue filter (Excitation at 490 nm and Emission at 510–570 nm). All data were corrected for nonspecific fluorescence when incubations were run without AeaTMOF-FITC or with AeaTMOF-FITC and without ribosomes. […]

[1] = system: trypsin mRNA in the gut epithelial cells; conditions: gut epithelial cells of Ae. aegypti and Neobellieria bullata; cited from earlier work
Text: Several of these ABC transporters with 80–100% similarity with the AeaTMOF receptor are also found in several Aedes, Anopheles, and ...

[2] = system: E. coli CGSC strain7636 cells expressing SbmA^+; test: Growth/viability of E. coli CGSC strain7636 expressing SbmA; assay type: cell-based, Escherichia coli; conditions: 3 and 10 mM peptide, 37 °C, 18 h, p < 0.05 vs control
Procedure: (§1) We aimed to find out if AeaTMOF can also stop bacterial growth as, was shown for the proline-rich Oncocin112 that binds to the bacterial ribosome, stopping protein translation, bacterial growth, and causing bacterial death. E. coli CGSC strain7636 (2.7 × 10^4 cells) SbmA^+, expressing the proline-rich peptides importer SbmA, were incubated in 96-well plate containing 100 μL/well of LB medium, 0.4 mM of IPTG, 0.1 mM of ampicillin, and different concentrations of AeaTMOF and Oncocin112 (1–13) (3 mM and 10 mM) in different wells. The 96-well plate was incubated at 37 °C for 18 h and bacterial growth was followed at 630 nm using Biotech ElX808 absorbance microplate reader. Control wells contained bacterial cells growing without AeaTMOF or oncocin112 (1–13). […] After the incubations in the presence of Oncocin112 (1–13) or AeaTMOF of 10 mM and 3 mM, aliquots (0.5 μL) were removed from each well and spread on LB agar plates containing 0.1 mM of ampicillin, and the plates were incubated overnight at 37 °C and viable colonies were counted. Incubations were done in triplicates and the experiments were repeated twice. Results are expressed as means of three determinations ± SEM.

bacterial 70 S ribosome = test: Inhibition of luciferase translation in E. coli S30 extract; assay type: biochemical, Escherichia coli
Procedure: To test the effect of AeaTMOF and Oncocin112 (1–13) on the translation of Luciferase by the bacterial 70 S ribosome, an E. coli S30 lysate extract system for circular DNA (Promega) containing a plasmid pBestluc DNA vector (4486 bp) (1 mg/mL) 0.3 μL, amino acid mixture without methionine (1 mM) 1.25 μL, amino acid mixture without Leucine (1 mM) 1.25 μL, S30 premix (including ribosomes) without amino acids 5 μL, S30 extract circular 3.5 μL, RNasin (8 U, 112 ng) 0.2 μL, different concentrations of AeaTMOF or Oncocin112 (1–13) (0.001 μM to 1000 μM), and nuclease-free water to a volume of 12.5 μL were incubated for 2 h at 37 °C. […] After incubation, 87.5 μL of GLO lysis buffer (Promega) containing beetle luciferin was added, mixed, and aliquots (5 μL) were removed, and their luminescence read in a GLOMAX multidetector system. […] The decrease in luminescence (% ± SEM) in the presence of increasing log AeaTMOF or Oncocin112 (1–13) concentrations was then plotted using GrapPad Prism 3.

[3] = system: E. coli mutant cells CGSC strain 8547 SbmA^- expressing only ABC-tmfA importer; test: Growth/viability of E. coli mutant CGSC strain 8547 SbmA^- expressing ABC-tmfA importer; assay type: cell-based, Escherichia coli
Procedure: E. coli CGSC strain […] lacking the SbmA importer expressing the ABCtmfA receptor/importer was prepared using plasmid pTAC-MAT-2 ABCtmfA importer/receptor as described earlier. [3,4,5 ^3H]Leucine 250 μCi, Spc Act 100–150 Ci/mmol was purchased from Perkin Elmer (Waltham, MA, USA). AeaTMOF-FITC (H-YDPAPPPPPPK(FITC)K-OH) was synthesized at the University of Colorado Anschutz School of Medicine protein core. AeaTMOF-FITC was purified by HPLC showing a single peak, and mass spectrometry analysis of the peak identified the 3 expected ions at 455.7, 607.3, and 910.3, showing an expected Mr 1019.56 as was described earlier. Synthetic AeaTMOF (H-YDPAPPPPPP-OH) and a short Oncocin112(1–13) (H-VDKPPYLPRPRPP-OH), a 13 amino acids oncocin112 peptide, 6 amino acids shorter than the original oncocin112 of 19 amino acids, were synthesized and purified by HPLC [16]. After HPLC purifications of AeaTMOF, oncocin112 (1–13), and AeaTMOF-FITC, the TFA ions were exchanged with phosphate ions.
as §1

luciferase = test: Effect on activity of pre-synthesized luciferase; assay type: biochemical, Beetle; conditions: results not shown
Procedure: Incubations of E. coli S30 extract synthesizing Beetle luciferase in the presence of an increasing concentration of AeaTMOF (0.001 to 750 μM) stopped the biosynthesis of luciferase, diminishing its activity on Beetle luciferin as measured in luminescence units. The activity of the in vitro synthesized luciferase on Beetle luciferin at very low concentration of AeaTMOF (0.001 μM) was similar to luciferase activity without AeaTMOF, and this luminescence was used to calculate the decrease in luminescence (%) after incubation with increasing concentrations of AeaTMOF (Figure 1A). Higher concentrations of AeaTMOF (higher than 0.001 μM) caused a linear decrease in the synthesis of luciferase and a decline in luminescence (%) reaching IC50 (inhibition concentration of 50%) at 1 μM (Figure 1A). […] AeaTMOF is not an inhibitor of luciferase.

In the case of “H-YDPAPPPPPPK(FITC)K-OH [AeaTMOF-FITC, H-[…](FITC)K-OH, FITC-labelled AeaTMOF]”, the “Kassoc, affinity constant” value (E. coli ribosome; calculated from specific binding KD) is reported as 4.3e+07 M⁻¹, the Kd (E. coli ribosome; purified E. coli (BL21) ribosomes 9.4 μg, AeaTMOF-FITC 0–0.2 μM, tight association buffer pH 7.6, 60 min at 30 °C, TCA precipitation, fluorescence, nonspecific binding subtracted, nonlinear regression, ± SEM, n = 6) is reported as 23 ± 3.4 nM and the “Bmax, ribosome binding” value (E. coli ribosome; purified E. coli ribosomes, AeaTMOF-FITC 0–0.2 μM, pH 7.6, 60 min at 30 °C, fluorescence, nonlinear regression, ± SEM, n = 6) is reported as 0.553 ± 0.023 pmol/μg ribosome.
In the case of “NPTNLH [NebTMOF, NPTNLH, trypsin modulating oostatic factor of Neobellieria bullata, reference compound]”, the “Effect on translation of trypsin mRNA” value [1] is listed as “stop the translation of trypsin mRNA”.
For “VDKPPYLPRPRPP [Oncocin112 (1–13), reference compound]”, the E. coli growth ([2]; 630 nm) was “significantly inhibited the growth of the E. coli cells”, the “Viable colonies at end of incubation” value ([2]; initial 2.7 × 10^4 cells, LB medium, plated on LB agar, triplicates) was 4–10 colonies and the “Inhibition of luciferase biosynthesis at lowest concentration” value (bacterial 70 S ribosome; AeaTMOF at 0.001 μM, Oncocin112 (1–13) at 0.01 μM, 2 h at 37 °C) was “do not inhibit the biosynthesis of luciferase”. The IC50 (bacterial 70 S ribosome; E. coli S30 lysate, pBestluc DNA, 2 h at 37 °C, peptide 0.001 to 750 μM, luminescence read-out, mean of three determinations, read-out: IC50, inhibition of luciferase biosynthesis (luminescence)) was 2000 nM, the “IC50 increase compared with AeaTMOF” value (bacterial 70 S ribosome; IC50 2 μM versus AeaTMOF) was “twofold increase” and the E. coli growth ([3]; SbmA^- cells expressing ABC-tmfA importer, 3 and 10 mM peptide, 37 °C, 18 h, 630 nm, p < 0.05 for inhibition) was “grew at the same rate”. For the same substance, the “E. coli cell growth (discussion)” value ([3]; cells that only expressed ABCtmfA receptor/importer, up to 10 mM) was “did not affect the cell growth, even at high concentrations of 10 mM”, the Importer used ([3]; inferred from growth of SbmA^+ and SbmA^- ABC-tmfA E. coli, 3 and 10 mM) was “can only use the bacterial natural importer SbmA” and the “Effect on Beetle luciferase biosynthesis versus activity” value (luciferase) was “inhibits Beetle luciferase biosynthesis and not its activity”.

From article PMC9028786, “The Ribosome Is the Ultimate Receptor for Trypsin Modulating Oostatic Factor (TMOF)” (Biomolecules, 2022)
